The results in this text go back to ChEMBL document CHEMBL3576760, “Modification of amphipathic non-opioid dynorphin A analogues for rat brain bradykinin receptors” (Bioorg Med Chem Lett, 2015).

A short description of series [1]: (§1) Displacement of [3H]DALKD from bradykinin receptor in rat brain membrane at pH 6.8 by competition assay. Format: cell membranes. On the technique in general: In a radioligand displacement assay an active substance lowers the binding of a labelled ligand.
Series [2] in a line: Retention time of the compound by HPLC analysis. Format: physicochemical.
Series [3] can be described thus: Displacement of [3H]DALKD from bradykinin receptor in rat brain membrane at pH 7.4 by competition assay. The format is cell membranes.
The species entered for another series is Rattus norvegicus. Described as §1. The format is cell membranes.

Calls of active or inactive are those of the source. The rule behind the calls is not given here. Non-standard residues stand in square brackets, D forms with d. Residues, ends and D or L forms follow the SMILES beside them. ξ: configuration not given here. Phe(4-NH2) = Nc1ccc(C[C@H](N)C(=O)O)cc1; dNle = CCCC[C@@H](N)C(=O)O; ξNle = CCCCC(N)C(=O)O

As a reminder, the pIC50 is the IC50 on a negative log10 scale, so that one unit is a factor of ten. As usually defined, the IC50 is the concentration at which inhibition is half-maximal. `CC(C)C[C@H](NC(=O)[C@H](CCCCN)NC(=O)[C@@H]1CCCN1C(=O)[C@@H](N)CCCNC(=N)N)C(=O)N[C@@H](CCCCN)C(=O)O` came in with a negative logarithm of the IC50 (pIC50) in series [1] of 7.24. In addition, the IC50 in series [1] (read-out: IC50) worked out at 58 nM. The same compound gave a Retention_time in series [2] of 6 min.
For `CC[C@H](C)[C@H](NC(=O)[C@H](CCCNC(=N)N)NC(=O)[C@@H](NC(=O)[C@@H](N)Cc1ccccc1)[C@@H](C)CC)C(=O)N[C@@H](CCCNC(=N)N)C(=O)N1CCC[C@H]1C(=O)N[C@@H](CCCNC(=N)N)C(=O)O` (H-FIRIRPR-OH), in series [1], the pIC50 came out at 6.96. Also, the IC50 in series [1] (read-out: IC50) came to 110 nM. This compound came in with a Retention_time in series [2] of 9.9 min.
Take `CC(C)C[C@H](NC(=O)[C@H](CCCCN)NC(=O)[C@@H](N)Cc1ccccc1)C(=O)N[C@@H](CCCCN)C(=O)O` (H-FKLK-OH): in series [3], the IC50 was found to be 350 nM and the pIC50 was 6.46. For the same compound, the Retention_time in series [2] came to 10.8 min.
Consider `CC(C)C[C@H](NC(=O)[C@H](CCCNC(=N)N)NC(=O)[C@H](CC(C)C)NC(=O)[C@@H](N)Cc1ccccc1)C(=O)N[C@@H](CCCNC(=N)N)C(=O)N1CCC[C@H]1C(=O)N[C@@H](CCCNC(=N)N)C(=O)O` (H-FLRLRPR-OH), for which the pIC50 in series [1] was determined as 7. In addition, the IC50 in series [1] (read-out: IC50) was found to be 100 nM. The Retention_time in series [2] stood at 10.8 min.
In series [3], `CC[C@H](C)[C@H](NC(=O)[C@H](CCCNC(=N)N)NC(=O)[C@H](CCCNC(=N)N)NC(=O)[C@H](CC(C)C)NC(=O)[C@@H](N)Cc1ccccc1)C(=O)O` (H-FLRRI-OH) had an IC50 of 4800 nM and a pIC50 of 5.32. The same compound gave a Retention_time in series [2] of 9.2 min.
As for `CC[C@H](C)[C@H](NC(=O)[C@H](CCCNC(=N)N)NC(=O)[C@H](CCCNC(=N)N)NC(=O)[C@H](CC(C)C)NC(=O)[C@@H](N)Cc1ccccc1)C(=O)N[C@@H](CCCNC(=N)N)C(=O)N1CCC[C@H]1C(=O)N[C@@H](CCCCN)C(=O)N[C@@H](CC(C)C)C(=O)O` (H-FLRRIRPKL-OH), the pIC50 in series [1] was 5.28. Also, the IC50 in series [1] (read-out: IC50) is 5200 nM. In addition, in series [2], the Retention_time came to 11.4 min.
Take `CC[C@H](C)[C@H](NC(=O)[C@H](CCCNC(=N)N)NC(=O)[C@@H](N)Cc1ccccc1)C(=O)N[C@@H](CCCNC(=N)N)C(=O)N1CCC[C@H]1C(=O)N[C@@H](CCCCN)C(=O)N[C@@H](CC(C)C)C(=O)N[C@@H](CCCCN)C(=O)O` (H-FRIRPKLK-OH): the pIC50 in series [1] came out at 7.08. The IC50 in series [1] (read-out: IC50) amounted to 83 nM. The compound further showed a Retention_time in series [2] of 10.2 min.
As to `CCCCC(NC(=O)[C@H](CCCNC(=N)N)NC(=O)C(CCCC)NC(=O)[C@@H](N)Cc1ccccc1)C(=O)N[C@@H](CCCNC(=N)N)C(=O)N1CCC[C@H]1C(=O)N[C@@H](CCCNC(=N)N)C(=O)O` (some centres not stated) (H-F[ξNle]R[ξNle]RPR-OH), the pIC50 in series [1] was found to be 7.06. Moreover, the IC50 in series [1] (read-out: IC50) is 87 nM.
In series [3], `CC(C)C[C@H](NC(=O)[C@H](Cc1ccccc1)NC(=O)CN)C(=O)N[C@@H](CCCNC(=N)N)C(=O)O` (H-GFLR-OH) had an IC50 of 950 nM and a pIC50 of 6.02. In series [2], this compound showed a Retention_time of 8.7 min.
The matching figures for `CC[C@H](C)[C@H](NC(=O)[C@H](CCCNC(=N)N)NC(=O)[C@H](CCCNC(=N)N)NC(=O)[C@H](CC(C)C)NC(=O)[C@H](Cc1ccccc1)NC(=O)CN)C(=O)O` (H-GFLRRI-OH): 2300 nM, 5.63 and 10.1 min.
In series [1], `CC[C@H](C)[C@H](NC(=O)[C@H](CCCNC(=N)N)NC(=O)[C@H](CC(C)C)NC(=O)[C@H](Cc1ccccc1)NC(=O)CNC(=O)CN)C(=O)N[C@@H](CCCNC(=N)N)C(=O)N1CCC[C@H]1C(=O)N[C@@H](CCCCN)C(=O)N[C@@H](CC(C)C)C(=O)N[C@@H](CCCCN)C(=O)O` (H-GGFLRIRPKLK-OH) yielded a pIC50 of 7.39. Further, in series [1] (read-out: IC50), the IC50 worked out at 41 nM.
In turn, `CC[C@H](C)[C@H](N)C(=O)N[C@@H](CCCNC(=N)N)C(=O)N1CCC[C@H]1C(=O)N[C@@H](CCCCN)C(=O)N[C@@H](CC(C)C)C(=O)N[C@@H](CCCCN)C(=O)O` (H-IRPKLK-OH) came in with a pIC50 in series [1] of 7.31. For the same compound, the IC50 in series [1] (read-out: IC50) worked out at 49 nM. This compound registered a Retention_time in series [2] of 6.8 min.
Regarding `CC[C@H](C)[C@H](NC(=O)[C@H](CCCNC(=N)N)NC(=O)[C@@H]1CCCN1C(=O)[C@H](CCCCN)NC(=O)[C@H](CC(C)C)NC(=O)[C@@H](N)CCCCN)C(=O)O` (H-KLKPRI-OH), in series [1], the pIC50 came out at 5.2. For the same compound, in series [1] (read-out: IC50), the concentration for half-maximal inhibition (IC50) was determined as 6300 nM. For the same compound, the Retention_time in series [2] is given as 9.9 min.
Consider `CC[C@H](C)[C@H](NC(=O)[C@H](CCCNC(=N)N)NC(=O)[C@@H]1CCCN1C(=O)[C@H](CCCCN)NC(=O)[C@H](CC(C)C)NC(=O)[C@@H](N)CCCCN)C(=O)N[C@@H](CCCNC(=N)N)C(=O)N[C@@H](CC(C)C)C(=O)N[C@@H](Cc1ccccc1)C(=O)NCC(=O)NCC(=O)O` (H-KLKPRIRLFGG-OH), for which the pIC50 in series [1] was determined as 6.82. The IC50 in series [1] (read-out: IC50) was found to be 150 nM. In series [2], this compound had a Retention_time of 12.1 min.
In series [1], `CC[C@H](C)[C@H](NC(=O)[C@H](CCCNC(=N)N)NC(=O)[C@@H]1CCCN1C(=O)[C@H](CCCCN)NC(=O)[C@H](CC(C)C)NC(=O)[C@@H](N)CCCCN)C(=O)N[C@@H](CCCNC(=N)N)C(=O)N[C@@H](CCCNC(=N)N)C(=O)N[C@@H](CC(C)C)C(=O)N[C@@H](Cc1ccccc1)C(=O)NCC(=O)NCC(=O)O` (H-KLKPRIRRLFGG-OH) returned a pIC50 of 7.11. Also, the IC50 in series [1] (read-out: IC50) came to 78 nM. The same compound registered a Retention_time in series [2] of 11.6 min.
On to `CC[C@H](C)[C@H](NC(=O)[C@H](CCCNC(=N)N)NC(=O)[C@@H]1CCCN1C(=O)[C@@H](N)CCCCN)C(=O)N[C@@H](CCCNC(=N)N)C(=O)N[C@@H](CC(C)C)C(=O)O` (H-KPRIRL-OH), for which the pIC50 in series [1] amounted to 6.03. The IC50 in series [1] (read-out: IC50) was determined as 930 nM. Besides, the Retention_time in series [2] turned out to be 9.9 min.
With `CC[C@H](C)[C@H](NC(=O)[C@H](CCCNC(=N)N)NC(=O)[C@@H]1CCCN1C(=O)[C@@H](N)CCCCN)C(=O)N[C@@H](CCCNC(=N)N)C(=O)N[C@@H](CC(C)C)C(=O)N[C@@H](Cc1ccccc1)C(=O)O` (H-KPRIRLF-OH), the pIC50 in series [1] was 7.3. Moreover, in series [1] (read-out: IC50), the IC50 worked out at 50 nM. For the same compound, the Retention_time in series [2] is reported as 14.5 min.
In the case of `CC[C@H](C)[C@H](NC(=O)[C@H](CCCNC(=N)N)NC(=O)[C@@H]1CCCN1C(=O)[C@H](CCCCN)NC(=O)[C@H](CC(C)C)NC(=O)[C@@H](N)CC(C)C)C(=O)N[C@@H](CCCNC(=N)N)C(=O)N[C@@H](CCCNC(=N)N)C(=O)N[C@@H](CC(C)C)C(=O)N[C@@H](Cc1ccccc1)C(=O)NCC(=O)NCC(=O)O` (H-LLKPRIRRLFGG-OH), the negative logarithm of the IC50 (pIC50) in series [1] turned out to be 7.03. In addition, the IC50 in series [1] (read-out: IC50) is 93 nM. In series [2], this compound showed a Retention_time of 12.6 min.
The compound `CC(C)C[C@H](NC(=O)[C@H](CCCCN)NC(=O)[C@@H]1CCCN1)C(=O)N[C@@H](CCCCN)C(=O)O` (H-PKLK-OH) registered a pIC50 in series [1] of 6.68. Besides, the IC50 in series [1] (read-out: IC50) was determined as 210 nM.
In the case of `CCCCC(NC(=O)[C@H](CCCCN)NC(=O)[C@@H]1CCCN1)C(=O)N[C@@H](CCCCN)C(=O)O` (some centres not stated) (H-PK[ξNle]K-OH), in series [3], the IC50 amounted to 71 nM and the pIC50 is 7.15. The same compound displayed a Retention_time in series [2] of 7.5 min.
On to `CC[C@H](C)[C@H](NC(=O)[C@@H](N)CCCNC(=N)N)C(=O)N[C@@H](CCCNC(=N)N)C(=O)N1CCC[C@H]1C(=O)N[C@@H](CCCCN)C(=O)N[C@@H](CC(C)C)C(=O)N[C@@H](CCCCN)C(=O)O` (H-RIRPKLK-OH), for which the pIC50 in series [1] was 7.19. Moreover, the IC50 in series [1] (read-out: IC50) is 65 nM. Also, in series [2], the Retention_time stood at 8.3 min.
`CC(C)C[C@H](NC(=O)[C@H](CCCCN)NC(=O)[C@@H](N)Cc1ccc(N)cc1)C(=O)N[C@@H](CCCCN)C(=O)O` (H-[Phe(4-NH2)]KLK-OH): in series [3], the IC50 came out at 450 nM and the pIC50 is on record as 6.35. The Retention_time in series [2] turned out to be 7.2 min.
On to `CCCC[C@@H](NC(=O)[C@H](N)Cc1ccccc1)C(=O)N[C@H](CCCNC(=N)N)C(=O)N[C@H](CCCC)C(=O)N[C@H](CCCNC(=N)N)C(=O)N1CCC[C@@H]1C(=O)N[C@H](CCCCN)C(=O)O` (H-[dF][dNle][dR][dNle][dR][dP][dK]-OH), for which, in series [1], the IC50 entry is listed as “Not Active”. In addition, in the series filed under Rattus norvegicus, the pIC50 result was “inactive”. In addition, in series [2], the Retention_time turned out to be 11.1 min.
As to `CCCCC(N)C(=O)N[C@@H](CCCCN)C(=O)N[C@H](C(=O)N[C@@H](CCCCN)C(=O)N1CCC[C@H]1C(=O)N[C@@H](CCCCN)C(=O)O)[C@@H](C)CC` (some centres not stated) (H-[ξNle]KIKPK-OH), the pIC50 in series [1] came out at 6.34. The IC50 in series [1] (read-out: IC50) came to 460 nM. This compound also came in with a Retention_time in series [2] of 7.9 min.
In the case of `CCCCC(N)C(=O)N[C@@H](CCCCN)C(=O)N1CCC[C@H]1C(=O)N[C@@H](CCCCN)C(=O)NC(CCCC)C(=O)N[C@@H](CCCCN)C(=O)O` (some centres not stated) (H-[ξNle]KPK[ξNle]K-OH), the pIC50 in series [1] is given as 7.11. In addition, the IC50 in series [1] (read-out: IC50) was 78 nM.
With `CCCCC(N)C(=O)N[C@@H](CCCCN)C(=O)NC(CCCC)C(=O)N[C@@H](CCCCN)C(=O)O` (some centres not stated) (H-[ξNle]K[ξNle]K-OH), in series [3], the IC50 stood at 110 nM and the pIC50 worked out at 6.94. Moreover, in series [2], the Retention_time is 9.9 min.
Take `CCCCC(N)C(=O)N[C@@H](CCCNC(=N)N)C(=O)N1CCC[C@H]1C(=O)N[C@@H](CCCNC(=N)N)C(=O)NC(CCCC)C(=O)N[C@@H](CCCCN)C(=O)O` (some centres not stated) (H-[ξNle]RPR[ξNle]K-OH): the pIC50 in series [1] came out at 7.08. Moreover, the IC50 in series [1] (read-out: IC50) stood at 83 nM. In series [2], the Retention_time is 8.2 min.
